Tested on: gene expression in Col-0 seedling shoots
Assay: Microarray analysis (ATH1 Affymetrix) after BL or abrasin treatment
Type: in vivo, Arabidopsis
Method: FIG. 14: Clustering of gene expression profiles by QT-clust analysis. Clusters illustrating the major patterns of the data sets. Points: BIK-30: 30 μM abrasin 30 min; BL-30: 1 μM brassinolide 30 min; DMSO-30: control DMSO 30 min; BIK-120: 30 μM abrasin 120 min; BL-120: 1 μM brassinolide 120 min; DMSO-120: control DMSO 120 min.
Col-0 seeds were germinated vertically on ½ MS medium for 7 days under 16 h light/8 h dark cycles. The seedlings were overlaid with liquid ½ MS medium containing 1 μM brassinolide (BL, Fuji Chemical Industries, Ltd., Toyama, Japan), 30 μM abrasin (BIK, ChemBridge Corporation) and DMSO and treated for 30 and 120 min. The shoot parts were collected for RNA isolation. All sampling points were performed in three independent experiments. RNA was extracted using RNeasy kit (Qiagene). […] total RNA per array was used to hybridise the ATH1 Affymetrix Arabidopsis arrays according to standard procedure. The overrepresentation analyses were performed using BiNGO software (Maere et al., 2005).
We performed a microarray analysis using the Arabidopsis whole genome chip (Affymetix) to determine whether abrasin activated the expression of BR-inducible genes at transcriptional level. Wild-type Col-0 seedlings were exposed to 1 μM BL, 30 μM ABRASIN and DMSO (mock-treatment) for two time points (30 min and 120 min) and the shoot parts were collected for RNA isolation. The analysis of the variance of the normalized gene expression data took in account the variability parameters affecting the expression level: type of hormone treatment, duration of treatment and the interaction between these two.

## O=C(O)CCC(=O)Nc1ccc(Br)cn1 [abrasin, 4-[(5-bromo-2-pyridinyl)amino]-4-oxobutanoic acid]
30 min, 265877_at, Cluster 6
  Fold-change of gene AT2G42380 (bZIP transcription factor family protein): 1.65
30 min, 266124_at, Cluster 8
  Fold-change of gene AT2G45080 (cyclin family protein): 0.77
120 min
  Fold-change AT1G04330 expressed protein: 4.41
  Fold-change AT1G05470 endonuclease/exonuclease/phosphatase family protein: 2.59
  Fold-change AT1G06520 Encodes a membrane associated mitochondrial localized protein: 2.28
  Fold-change AT1G06570 4-hydroxyphenylpyruvate dioxygenase (HPD): 0.29
  Fold-change AT1G10550 xyloglucan:xyloglucosyl transferase: 1.66
  Fold-change AT1G12710 F-box family protein: 1.41
  Fold-change AT1G12750 rhomboid family protein: 1.60
  Fold-change AT1G14130 2-oxoglutarate-dependent dioxygenase: 2.47
  Fold-change AT1G14700 purple acid phosphatase: 0.47
  Fold-change AT1G16640 transcriptional factor B3 family protein: 2.20
  Fold-change AT1G17230 leucine-rich repeat family protein: 0.22
  Fold-change AT1G18020; AT1G17990 [AT1G18020, 12-oxophytodienoate reductase,: 1.78
  Fold-change AT1G19320 pathogenesis-related thaumatin family protein: 0.50
  Fold-change AT1G20350 mitochondrial import inner membrane translocase subunit: 2.67
  Fold-change AT1G21050 expressed protein: 0.14
  Fold-change AT1G21760 F-box family protein: 0.46
  Fold-change AT1G22360 UDP-glucoronosyl/UDP-glucosyl transferase family protein: 0.32
  Fold-change AT1G23080 auxin efflux carrier protein (PIN7): 0.33
  Fold-change AT1G26800 zinc finger (C3HC4-type RING finger) family protein,: 4.39
  Fold-change AT1G27730 zinc finger (C2H2 type) family protein: 1.06
  Fold-change AT1G28130 encodes an IAA-amido synthase: 0.40
  Fold-change AT1G28190 expressed protein: 1.65
  Fold-change AT1G28480 glutaredoxin family protein: 3.97
  Fold-change AT1G31040 zinc-binding protein-related: 4.37
  Fold-change AT1G31310 hydroxyproline-rich glycoprotein family protein: 2.45
  Fold-change AT1G31770 ABC transporter family protein: 0.50
  Fold-change AT1G32190 expressed protein: 0.07
  Fold-change AT1G32690 expressed protein: 0.26
  Fold-change AT1G36940 expressed protein: 0.32
  Fold-change AT1G49780 U-box domain-containing protein: 0.56
  Fold-change AT1G53870; AT1G53890 [AT1G53870, expressed protein: 0.51
  Fold-change AT1G54050 17.4 kDa class III heat shock protein (HSP17.4-CIII): 2.86
  Fold-change AT1G54200 expressed protein: 2.19
  Fold-change AT1G55920 serine O-acetyltransferase: 2.16
  Fold-change AT1G57560 myb family transcription factor (MYB50): 2.65
  Fold-change AT1G59590 expressed protein: 2.08
  Fold-change AT1G59660 nucleoporin family proteinmily: 2.94
  Fold-change AT1G62300 WRKY family transcription factor: 0.71
  Fold-change AT1G63050 membrane bound O-acyl transferase (MBOAT) family protein: 0.27
  Fold-change AT1G66160 U-box domain-containing protein,: 1.91
  Fold-change AT1G66890 expressed protein: 0.14
  Fold-change AT1G68330 expressed protein: 2.78
  Fold-change AT1G68810 basic helix-loop-helix (bHLH) family protein: 0.41
  Fold-change AT1G69160 expressed protein: 0.33
  Fold-change AT1G70990 proline-rich family protein: 3.50
  Fold-change AT1G71030 Encodes a putative myb family transcription factor: 0.46
  Fold-change AT1G72060 expressed protein: 5.97
  Fold-change AT1G72180 leucine-rich repeat transmembrane protein kinase: 0.11
  Fold-change AT1G72800 nuM1-related, contains: 2.15
  Fold-change AT1G75270 dehydroascorbate reductase: 2.62
  Fold-change AT1G75500 nodulin MtN21 family protein: 0.37
  Fold-change AT1G76240 expressed protein,: 0.07
  Fold-change AT1G76410 zinc finger (C3HC4-type RING finger): 0.16
  Fold-change AT1G79110 expressed protein: 0.45
  Fold-change AT1G79630 protein phosphatase 2C family protein: 0.35
  Fold-change AT1G80440 kelch repeat-containing F-box family protein: 2.89
  Fold-change AT2G01300 expressed protein: 3.12
  Fold-change AT2G01990 expressed protein,: 2.56
  Fold-change AT2G04240 zinc finger (C3HC4-type RING finger) family protein: 1.72
  Fold-change AT2G05540 glycine-rich protein: 0.54
  Fold-change AT2G12290; AT4G19700 [AT2G12290, expressed protein]; [AT4G19700, expressed protein]: 0.53
  Fold-change AT2G18010 auxin-responsive family protein (SAUR10): 3.94
  Fold-change AT2G19800 expressed protein: 2.22
  Fold-change AT2G22860 phytosulfokines 2 (PSK2): 0.19
  Fold-change AT2G23180 cytochrome P450, putative: 0.36
  Fold-change AT2G23320 WRKY family transcription factor: 1.19
  Fold-change AT2G26530 expressed protein: 1.99
  Fold-change AT2G26710 cytochrome p450 family (BAS1): 2.26
  Fold-change AT2G28510 Dof-type zinc finger domain-containing protein: 1.19
  Fold-change AT2G29340 short-chain dehydrogenase/reductase (SDR) family protein: 3.73
  Fold-change AT2G29990 pyridine nucleotide-disulphide oxidoreductase family protein: 1.38
  Fold-change AT2G30070 potassium transporter (KUP1): 0.22
  Fold-change AT2G31230 encodes a member of the ERF (ethylene response factor): 3.17
  Fold-change AT2G34650 protein kinase PINOID (PID): 2.52
  Fold-change AT2G36220 expressed protein: 2.76
  Fold-change AT2G37590 Dof-type zinc finger domain-containing protein: 5.81
  Fold-change AT2G38470 WRKY family transcription factor: 1.34
  Fold-change AT2G39710 aspartyl protease family protein: 2.52
  Fold-change AT2G40340; AT2G40350 [AT2G40340, encodes a member of the DREB subfamily A-2 of ERF/AP2: 3.20
  Fold-change AT2G41250 haloacid dehalogenase-like hydrolase family protein: 0.33
  Fold-change AT2G41640 expressed protein: 2.53
  Fold-change AT2G42280 basic helix-loop-helix (bHLH) family protein: 0.28
  Fold-change AT2G43060 expressed protein, similar to cDNA bHLH transcription factor: 0.25
  Fold-change AT2G43280 far-red impaired responsive family protein: 0.48
  Fold-change AT2G43290 calmodulin-like protein (MSS3): 1.45
  Fold-change AT2G44130 kelch repeat-containing F-box family protein: 7.72
  Fold-change AT2G44500 expressed protein: 2.19
  Fold-change AT2G45210 auxin-responsive protein-related: 0.24
  Fold-change AT2G45680 TCP family transcription factor: 0.46
  Fold-change AT2G46225 Encodes a subunit of the WAVE complex: 0.58
  Fold-change AT2G47440 DNAJ heat shock N-terminal domain-containing protein: 1.64
  Fold-change AT3G04210 disease resistance protein (TIR-NBS class), putative,: 3.17
  Fold-change AT3G09920 phosphatidylinositol-4-phosphate 5-kinase family protein: 1.07
  Fold-change AT3G12920 expressed protein: 0.31
  Fold-change AT3G13040 myb family transcription factor: 0.48
  Fold-change AT3G13510 expressed protein: 0.42
  Fold-change AT3G13980 expressed protein: 0.08
  Fold-change AT3G14370 protein kinase family protein: 2.16
  Fold-change AT3G14560 expressed protein: 0.35
  Fold-change AT3G16570 rapid alkalinization factor (RALF) family protein: 0.36
  Fold-change AT3G17860 expressed protein: 0.45
  Fold-change AT3G18830 polyol/cyclitol/monosaccharide-H+-symporte: 2.60
  Fold-change AT3G19380 U-box domain-containing protein: 0.48
  Fold-change AT3G23030 auxin-responsive protein/indoleacetic acid-induced protein 2 (IAA2): 0.25
  Fold-change AT3G23550 MATE efflux family protein: 0.38
  Fold-change AT3G25710 basic helix-loop-helix (bHLH) family protein: 0.10
  Fold-change AT3G25900 homocysteine S-methyltransferase 1 (HMT-1): 2.67
  Fold-change AT3G26910 hydroxyproline-rich glycoprotein family protein: 1.85
  Fold-change AT3G30180 cytochrome p450 enzyme: 0.06
  Fold-change AT3G46880 expressed protein,: 1.51
  Fold-change AT3G47800 aldose 1-epimerase family protein: 0.57
  Fold-change AT3G48970 copper-binding family protein: 0.38
  Fold-change AT3G49810 U-box domain-containing protein: 1.12
  Fold-change AT3G50650 scarecrow-like transcription factor 7 (SCL7): 2.48
  Fold-change AT3G50660 steroid 22-alpha-hydroxylase (CYP90B1) (DWF4): 0.02
  Fold-change AT3G50750 brassinosteroid signalling positive regulator-related (BEH1): 0.31
  Fold-change AT3G52490 heat shock protein-related: 2.41
  Fold-change AT3G53810 lectin protein kinase: 2.23
  Fold-change AT3G54950 patatin-related,: 0.43
  Fold-change AT3G55120 chalcone-flavanone isomerase: 0.39
  Fold-change AT3G55150 exocyst subunit EXO70 family protein: 0.48
  Fold-change AT3G55840 expressed protein: 6.96
  Fold-change AT3G61460 zinc finger (C3HC4-type RING finger) family protein (BRH1): 0.32
  Fold-change AT3G63300 expressed protein: 2.07
  Fold-change AT4G01680 myb family transcription factor (MYB55): 0.14
  Fold-change AT4G02410 lectin protein kinase family protein: 1.55
  Fold-change AT4G08040 1-aminocyclopropane-1-carboxylate synthase, putative: 0.02
  Fold-change AT4G09460 myb family transcription factor: 3.27
  Fold-change AT4G12390 invertase/pectin methylesterase inhibitor family protein: 0.44
  Fold-change AT4G12410 auxin-responsive family protein: 0.31
  Fold-change AT4G14130 xyloglucan:xyloglucosyl transferase: 0.02
  Fold-change AT4G15975 zinc finger (C3HC4-type RING finger) family protein: 3.28
  Fold-change AT4G16146 expressed protein: 0.49
  Fold-change AT4G16563 aspartyl protease family protein: 1.65
  Fold-change AT4G16670 expressed protein: 0.34

Source: patent US8273775B2, “Non-steroidal brassinosteroid mimetic” (priority 2006, dated 2012)
